Assay [1] concerns L929 fibroblasts. Description: TNF-induced apoptosis in L929 fibroblasts with Lac Switch MEKK1COOH expression. The format is cell-based, murine. The source says: In L929 cells expressing the MEKK1COOH domain, exposure to TNF and IPTG increased the percentage of apoptotic cells to 40%, approximately a 2-fold increase.
For assay [2], the system named is B-Raf. Description: Raf activation assay in L929 cells, B-Raf. The format is cell-based, murine. As for the experimental part:
Cell lines and culture. L929 cells (ATCC CCL1 were maintained in Dulbecco's modified Eagle's medium with 5% newborn calf serum and 5% bovine calf serum (BCS) supplemented with 100 ug/ml streptomycin and 100 U/ml penicillin. The cells were grown in 10 cm dishes at 37° C. in 7.5% CO2. Cells were made quiescent where indicated by incubation in Dulbecco's modified Eagle's medium and 0.1% bovine serum albumin for 24 h. Recombinant murine TNFα and recombinant human bFGF (147aa) were from R&D Systems, Minneapolis, Minn. Cells were pretreated where indicated with the MEK-1 inhibitor PD#098059 (Parke-Davis Pharmaceutical Corp. Ann Arbor, Mich.) for 1 h at 37° C. Cells were stimulated by incubation with the indicated cytokine or growth factor for various times at 37° C. […] JNK activity was measured using a solid state kinase assay in which glutathione S-transferase-c-Jun (1-79) (GST-JUN) cound to glutathione-Sepharose 4B beads was used to affinity purify JNK and then JNK activity was measured in an in vitro kinase assay using the sepharose bound GST-Jun as a substrate (Hibi, M., et al. (1993) Genes & Development 7:2135-2148). […] MAPK Assay MAPK activity was measured exactly as described previously (Gardner, A. M., et al. (1994) Meth. Enzymol. 238:258-270) with the exception that MonoQ FPLC fractionation was replaced by step elution from a DEAE-Sephacel column using 0.5 M NaCl in loading buffer. […]

The subject of assay [3] is C-Raf. Description: Raf activation assay in L929 cells, C-Raf. The assay is classed as cell-based, murine.
The subject of assay [4] is MEKK1. Briefly: Cellular localization of MEKK1 in Swiss 3T3 cells, antibody staining. The assay is classed as cell-based. Conditions: serum starved Swiss 3T3 cells, 10 minutes. From the text:
(§1) Cells were fixed and stained with an antibody specifically recognizing either MEKK1 or MEKK2. Secondary FITC-conjugated anti-rabbit IgG antibody was used for staining.

Assay [5] concerns MEKK2. Briefly: Cellular localization of MEKK2 in Swiss 3T3 cells, antibody staining. The format is cell-based. Particulars: serum starved Swiss 3T3 cells, 10 minutes.
Excerpt: as §1

With TNFα, in assay [1] (TNF exposure, presence or absence of IPTG), the “percentage of apoptotic cells, control L929 cells” value is listed as “approximately 20%”. In addition, the “level of apoptotic cells, L929 cells expressing the kinase inactive mutant” value in assay [1] (exposure to TNF) is reported as “did not increase the level of apoptotic cells above levels seen in controls”. Besides, in assay [1] (exposure to TNF and IPTG), the “increase of percentage of apoptotic cells, MEKK1COOH cells versus control” value is roughly 2 fold and the “percentage of apoptotic cells, L929 cells expressing the MEKK1COOH domain” value stood at 40%. Besides, the “activation of B-Raf (phosphorylation of kinase-inactive MEK-1)” value in assay [2] is recorded as “does not significantly activate either isoform of Raf”. The “activation of C-Raf (phosphorylation of kinase-inactive MEK-1)” value in assay [3] is given as “does not significantly activate either isoform of Raf”. Also, in assay [4], the “cellular localization of MEKK1” value is given as “had no effect on the cellular localization of MEKK1”. Moreover, the “cellular localization of MEKK2” value in assay [5] is recorded as “induced a translocation of MEKK2 to the plasma membrane”.
Consider “bFGF: recombinant human bFGF (147aa), basic fibroblast growth factor”, for which the “activation of B-Raf (phosphorylation of kinase-inactive MEK-1)” value in assay [2] is “activation of both B-Raf and C-Raf”. Besides, the “activation of C-Raf (phosphorylation of kinase-inactive MEK-1)” value in assay [3] was “activation of both B-Raf and C-Raf”.
